Data taken from ChEMBL document CHEMBL3751700, “Therapeutic Potential of GPR120 Agonists for the Treatment of Type 2 Diabetes” (ACS Med Chem Lett, 2015).

Columns and labels:
[1] = Agonist activity at human GPR120 long isoform transfected in CHO-K1 cells by beta-arrestin recruitment assay; type: cell-based
[2] = Agonist activity at human GPR120 short isoform transfected in CHO-K1 cells by beta-arrestin recruitment assay; type: cell-based
[3] = Agonist activity at human GPR120 long isoform transfected in HEK293 cells assessed as calcium flux by FLIPR assay; type: cell-based
Mus musculus [4] = experiment: Antidiabetic activity in C57bl6 mouse assessed as glucose level at 3 mg/kg by oral glucose tolerance test; type: functional
Mus musculus [5] = experiment: Antidiabetic activity in DIO mouse assessed as glucose level at 10 mg/kg measured from -30 to 90 mins by oral glucose tolerance test; type: functional
Mus musculus [6] = experiment: Antidiabetic activity in C57bl6 mouse assessed as glucose level at 3 mg/kg by intraperitoneal glucose tolerance test; type: functional
Mus musculus [7] = experiment: Antidiabetic activity in C57bl6 mouse assessed as glucose level at 10 mg/kg by intraperitoneal glucose tolerance test; type: functional
Mus musculus [8] = experiment: Antidiabetic activity in C57bl6 mouse assessed as glucose level at 30 mg/kg by intraperitoneal glucose tolerance test; type: functional
[9] = Agonist activity at human GPR120 short isoform transfected in HEK293 cells assessed as calcium flux by FLIPR assay; type: cell-based

Cc1ccccc1-c1snc(Cl)c1COc1c(F)cc(CCC(=O)O)cc1F
EC50 [1]: 322 nM | EC50 [2]: 990 nM | EC50 [3]: 344 nM

O=C(O)CCc1cc(F)c(OCc2c(C3CCCC3)nsc2C(F)(F)F)c(F)c1
Activity (Mus musculus [4]): -37% | EC50 [1]: 278 nM | Activity (Mus musculus [5]): -0.52% | EC50 [2]: 139 nM | Activity (Mus musculus [6]): -14% | EC50 [3]: 37 nM

Cc1c(CCC(=O)O)ccc(OCc2sc(F)cc2-c2ccc(Cl)cc2)c1C
EC50 [2]: 83 nM | EC50 [3]: 49 nM

Cc1c(CCC(=O)O)ccc(OCc2c(-c3ccc(Cl)cc3)nsc2C(F)(F)F)c1C
EC50 [1]: 141 nM | EC50 [2]: 100 nM | Activity (Mus musculus [7]): -61% | Activity (Mus musculus [6]): -34% | EC50 [3]: 155 nM | Activity (Mus musculus [8]): -53%

CCc1ccc(-c2cc(F)sc2COc2ccc(CCC(=O)O)c(C)c2C)cc1
EC50 [1]: 218 nM | EC50 [2]: 205 nM | EC50 [3]: 24 nM

OCCCc1cc(F)c(OCc2c(-c3ccc(Cl)cc3F)nsc2C(F)(F)F)c(F)c1
EC50 [9]: 139 nM | EC50 [2]: 80 nM
